A word on the IC50: it is the concentration needed to halve the response being measured.

This note sets out measurements from ChEMBL document CHEMBL1177736, “Isopropylidene substitution increases activity and selectivity of biphenylmethylene 4-pyridine type CYP17 inhibitors” (J Med Chem, 2010).

Structures are written as SMILES.

One assay deals with T1, Aromatase (Homo sapiens, UniProt P11511).
T1 sequence (P11511 whole entry): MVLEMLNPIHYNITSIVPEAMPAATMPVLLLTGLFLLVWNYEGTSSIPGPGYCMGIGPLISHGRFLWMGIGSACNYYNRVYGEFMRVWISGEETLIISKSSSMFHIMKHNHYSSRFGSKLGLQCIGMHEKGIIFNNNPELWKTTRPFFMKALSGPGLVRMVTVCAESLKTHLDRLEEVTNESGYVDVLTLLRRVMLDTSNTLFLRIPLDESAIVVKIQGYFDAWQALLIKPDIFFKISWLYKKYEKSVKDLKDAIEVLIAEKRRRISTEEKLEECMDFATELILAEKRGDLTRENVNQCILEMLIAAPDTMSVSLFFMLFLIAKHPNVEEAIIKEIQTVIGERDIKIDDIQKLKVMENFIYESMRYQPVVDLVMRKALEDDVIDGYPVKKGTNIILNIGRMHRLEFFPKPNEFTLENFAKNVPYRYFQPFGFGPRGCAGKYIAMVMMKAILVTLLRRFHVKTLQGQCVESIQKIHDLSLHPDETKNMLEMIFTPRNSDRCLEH
Description: Inhibition of CYP19 in human placental microsomes. The arrangement: species or system Placenta.

For assay [1], the target named is T2, Cytochrome P450 11B1, mitochondrial (Homo sapiens, UniProt P15538).
T2 sequence (P15538 whole entry): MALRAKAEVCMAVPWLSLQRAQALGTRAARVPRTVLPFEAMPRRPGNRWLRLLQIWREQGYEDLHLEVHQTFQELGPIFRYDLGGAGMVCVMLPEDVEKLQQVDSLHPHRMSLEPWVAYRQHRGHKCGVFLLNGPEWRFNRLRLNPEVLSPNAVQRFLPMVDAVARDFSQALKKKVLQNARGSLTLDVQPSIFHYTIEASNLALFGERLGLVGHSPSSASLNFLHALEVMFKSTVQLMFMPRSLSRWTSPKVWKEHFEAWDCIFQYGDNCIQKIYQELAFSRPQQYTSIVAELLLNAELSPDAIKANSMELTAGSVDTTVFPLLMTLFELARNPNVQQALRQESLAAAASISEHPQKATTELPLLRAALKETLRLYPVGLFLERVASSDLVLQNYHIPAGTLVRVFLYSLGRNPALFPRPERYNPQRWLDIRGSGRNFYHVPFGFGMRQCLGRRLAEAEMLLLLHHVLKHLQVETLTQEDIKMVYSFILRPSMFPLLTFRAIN
Description: Inhibition of human CYP11B1 expressed in hamster V79MZh cells. Type of assay: cell-based.

For assay [2], the target named is T3, Steroid 17-alpha-hydroxylase/17,20 lyase (Homo sapiens, UniProt P05093).
T3 sequence (P05093 whole entry): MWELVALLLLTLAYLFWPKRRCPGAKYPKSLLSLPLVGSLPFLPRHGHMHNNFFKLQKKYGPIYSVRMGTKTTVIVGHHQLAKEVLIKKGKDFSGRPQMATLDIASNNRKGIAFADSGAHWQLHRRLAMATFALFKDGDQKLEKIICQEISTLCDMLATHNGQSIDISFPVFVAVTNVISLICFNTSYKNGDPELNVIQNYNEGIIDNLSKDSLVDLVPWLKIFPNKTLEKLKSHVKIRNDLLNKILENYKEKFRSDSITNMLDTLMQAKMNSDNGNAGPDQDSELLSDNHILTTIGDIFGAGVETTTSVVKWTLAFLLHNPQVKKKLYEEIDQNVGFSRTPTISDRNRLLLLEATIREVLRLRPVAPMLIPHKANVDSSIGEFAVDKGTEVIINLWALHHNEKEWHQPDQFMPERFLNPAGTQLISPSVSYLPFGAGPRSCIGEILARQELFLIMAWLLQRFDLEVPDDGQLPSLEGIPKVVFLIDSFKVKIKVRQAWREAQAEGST
Description: Inhibition of human CYP17 expressed in Escherichia coli coexpressing NADPH-P450 reductase.

The target of assay [3] is T4, Cytochrome P450 11B2, mitochondrial (Homo sapiens, UniProt P19099).
T4 sequence (P19099 whole entry): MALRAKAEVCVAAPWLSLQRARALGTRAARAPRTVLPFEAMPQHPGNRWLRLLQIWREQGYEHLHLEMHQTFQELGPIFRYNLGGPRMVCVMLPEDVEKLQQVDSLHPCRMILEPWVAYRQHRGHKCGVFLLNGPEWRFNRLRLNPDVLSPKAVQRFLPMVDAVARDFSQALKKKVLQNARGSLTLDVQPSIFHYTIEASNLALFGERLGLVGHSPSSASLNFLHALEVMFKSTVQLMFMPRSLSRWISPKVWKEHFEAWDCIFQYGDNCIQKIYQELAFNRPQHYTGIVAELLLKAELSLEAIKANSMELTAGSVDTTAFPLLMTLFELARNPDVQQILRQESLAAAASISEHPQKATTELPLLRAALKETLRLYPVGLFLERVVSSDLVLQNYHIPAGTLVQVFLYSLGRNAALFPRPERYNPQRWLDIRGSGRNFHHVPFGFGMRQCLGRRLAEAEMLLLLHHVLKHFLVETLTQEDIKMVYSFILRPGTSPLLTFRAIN
Nature of the assay: Inhibition of human CYP11B2 expressed in hamster V79MZh cells. Type of assay: cell-based.

Another assay concerns the target Cytochrome P450 3A4 (Homo sapiens, UniProt P08684). Description: Inhibition of CYP3A4 expressed in baculovirus infected insect microsomes. Also on record: species or system Microsome.

Cytochrome P450 3A4, sequence (P08684 whole entry): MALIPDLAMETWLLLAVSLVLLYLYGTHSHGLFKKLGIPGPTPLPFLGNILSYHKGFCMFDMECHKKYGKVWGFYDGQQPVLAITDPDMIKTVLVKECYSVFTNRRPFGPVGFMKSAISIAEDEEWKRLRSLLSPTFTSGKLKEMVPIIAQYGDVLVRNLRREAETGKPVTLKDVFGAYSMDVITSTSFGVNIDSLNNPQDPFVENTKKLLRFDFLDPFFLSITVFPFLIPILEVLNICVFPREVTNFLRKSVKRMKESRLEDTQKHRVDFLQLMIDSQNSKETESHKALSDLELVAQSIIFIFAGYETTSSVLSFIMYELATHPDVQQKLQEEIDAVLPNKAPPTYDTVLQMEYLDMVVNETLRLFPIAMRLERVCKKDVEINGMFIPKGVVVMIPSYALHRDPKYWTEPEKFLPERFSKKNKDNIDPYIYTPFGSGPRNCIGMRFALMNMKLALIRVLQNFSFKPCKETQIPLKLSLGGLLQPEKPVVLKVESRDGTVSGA

Regarding `Nc1cccc(-c2ccc(Cc3ccncc3)cc2)c1`, the half-maximal inhibitory concentration (IC50) was determined as 2830 nM against Aromatase, 287 nM in assay [1], 226 nM in assay [2] and 921 nM in assay [3].

As for `CC(C)=C(c1ccncc1)c1ccc(-c2ccc(N)c(N)c2)cc1`, the IC50 against Aromatase came to 49500 nM; against Cytochrome P450 3A4, 1770 nM; in assay [1], 7180 nM; in assay [2], 75 nM; in assay [3], 1130 nM.

Regarding `CC(C)C(c1ccncc1)c1ccc(-c2cccc(O)c2)cc1` (stereo unspecified), in assay [2], the IC50 is 783 nM.

For the compound `Oc1ccc(-c2ccc(Cc3ccncc3)cc2)cc1O`, the half-inhibitory concentration (IC50) stood at 2440 nM against Aromatase; 7580 nM against Cytochrome P450 3A4; 1400 nM in assay [1]; 52 nM in assay [2]; 948 nM in assay [3].

For the compound `CC(C)=C(c1ccncc1)c1ccc(-c2ccc3cc(O)ccc3c2)cc1`, the IC50 at Aromatase amounted to 48700 nM; in assay [1] it was 5060 nM; in assay [2], 62 nM; in assay [3], 49500 nM.

As to `CC(C)=C(c1ccncc1)c1ccc(-c2ccc(O)c(O)c2)cc1`, the IC50 on Aromatase was determined as 9500 nM; against Cytochrome P450 3A4 it was 464 nM; in assay [1] it was 37500 nM; in assay [2], 37 nM; in assay [3] it was 974 nM.

As to `Oc1cccc(-c2ccc(Cc3ccncc3)cc2)c1`, the IC50 on Aromatase stood at 663 nM; on Cytochrome P450 3A4, 538 nM; in assay [1], 342 nM; in assay [3] it was 261 nM.

For `CCC(c1ccncc1)c1ccc(-c2cccc(O)c2)cc1` (stereo unspecified), inhibition in assay [2] was half-maximal at 189 nM (IC50).

For `CC(C)=C(c1ccncc1)c1ccc(-c2cccc(O)c2)cc1`, the half-inhibitory concentration (IC50) was determined as 12000 nM against Aromatase; 730 nM against Cytochrome P450 3A4; 3100 nM in assay [1]; 56 nM in assay [2]; 3450 nM in assay [3].

For the compound `Oc1ccc(-c2ccc(Cc3ccncc3)cc2)cc1F`, the IC50 at Aromatase was 1670 nM; against Cytochrome P450 3A4, 896 nM; in assay [1], 351 nM; in assay [2], 186 nM; in assay [3], 110 nM.

The compound `CCC(c1ccncc1)c1ccc(-c2ccc(O)c(F)c2)cc1` (stereo unspecified) returned an IC50 in assay [2] of 343 nM.

As for `CC(C)=C(c1ccncc1)c1ccc(-c2cccc(N)c2)cc1`, the 50% inhibitory concentration (IC50) at Aromatase stood at 5060 nM; against Cytochrome P450 3A4 it was 1330 nM; in assay [1] it was 7300 nM; in assay [2], 38 nM; in assay [3], 3830 nM.

With `Nc1ccc(-c2ccc(Cc3ccncc3)cc2)cc1N`, the 50% inhibitory concentration (IC50) against Aromatase was 24600 nM; in assay [1] it was 502 nM; in assay [2], 337 nM; in assay [3], 368 nM.

Regarding `CC(C)=C(c1ccncc1)c1ccc(-c2ccc(O)c(F)c2)cc1`, the concentration for half-maximal inhibition (IC50) against Aromatase came to 5750 nM; on Cytochrome P450 3A4, 17600 nM; in assay [1] it was 2000 nM; in assay [2], 75 nM; in assay [3], 1870 nM.

On to `CC(C)=C(c1ccncc1)c1ccc(-c2cccc(NC(=O)OC(C)(C)C)c2)cc1`, for which the concentration for half-maximal inhibition (IC50) in assay [2] stood at 1460 nM.

In assay [2], `CC(C)=C(c1ccncc1)c1ccc(-c2ccc(NC(=O)OC(C)(C)C)cc2)cc1` gave an IC50 of 493 nM.

Compound `CC(C)=C(c1ccncc1)c1ccc(-c2ccc(NC(=O)OC(C)(C)C)c(F)c2)cc1` returned an IC50 in assay [2] of 852 nM.

In the case of `CC(C)=C(c1ccncc1)c1ccc(-c2ccc(NC(=O)OC(C)(C)C)c(NC(=O)OC(C)(C)C)c2)cc1`, in assay [2], the IC50 was more than 10000 nM.

As for `C[C@]12CC[C@H](O)CC1=CC[C@@H]1[C@@H]2CC[C@]2(C)C(c3cccnc3)=CC[C@@H]12` [ABIRATERONE], the concentration for half-maximal inhibition (IC50) on Aromatase was more than 50000 nM; in assay [1], 1610 nM; in assay [3], 1750 nM.
